Assay results as given in patent US9868784B2, “Antibodies against the S100P protein for the treatment and diagnosis of cancer” (LYKERA BIOMED SA, priority 2011, dated 2018).
Where “and” joins values, the source holds several entries; their conditions need not be identical. Identical values can stand only once.

Legend:
[1] = test system: human pancreatic BxPC3 tumors; assay: Orthotopic BxPC3-luc pancreatic tumor model, tumor progression and metastases (TMPN score, bioluminescence); assay type: in vivo, nude mice; parameters: key to Nodes score / Tumor score / Organ Metastases, Liver score / Organ Metastases, Lung score / Peritoneal Metastases, Diaphragm score / Peritoneal Metastases, Kidney score / Peritoneal Metastases, Adrenals score / Peritoneal Metastases, Intestine score / Peritoneal Metastases, Peritoneum score: TMPN category scores per Table 2 (modified Hennig 2005); key to Total Score: product of T, M, P and N scores per animal; settings: individual animal, end of experiment
Method: The antitumorigenic and antimetastatic capability of the monoclonal antibodies 3F8 and 2H8 against S100P was assessed in an orthotopic tumor model using the human adenopancreatic BxPC3 tumor cell line stably expressing a lentiviral luciferase reporter gene.
BxPC3-luc cell line in exponential growth were harvested with trypsin-EDTA (0.05%/0.02%) (Invitrogen), washed, and examined for viability by trypan blue dye exclusion. Viability was greater than 95%. For primary tumor growth, cells (5×105 in 0.1 mL DMEM high glucose) were injected into the pancreas of 5 nude mice.
Four weeks after cell injection, when tumors became established (300-350 mm3), two animals were killed, tumors were obtained, sliced in 5 mm3 pieces approximately and implanted in 15 new mice. Mice were divided into 3 groups of five animals each one.
Tumor growth and metastasis were followed by bioluminescent imaging, palpation of animals and the examination of endpoint criteria of treated animals (occurrence of ascitic fluid and body weight loss).
Mice were treated either with cromolyn (reference compound that is known to bind to S100P and block its extracellular activity, Arumugam T. et al. 2006. J. Natl. Cancer Inst. 98(24):1806-18), daily (5 mg/Kg body weight by ip injection) or with our antibodies against S100P (3F8 and 2H8), three times per week at 25 mg/Kg by ip injection, starting the treatment 24 hours after tumor implantation. At the end of the experiment (treatment of 30 days) animals were killed, pancreatic tumors were surgically removed, weighted and an staging and scoring system of peritoneal tumors, pancreatic tumors, lymph node metastases, organ metastases, and ascites was developed and recorded according to our TMPN scoring system (Table 2) modified from Hennig R. et al. 2005. Neoplasia, 7(4):417-425 to evaluate tumor progression. Scores from each category were multiplied with each other because patterns in medicine follow multiplicative, rather than additive, rules.
Scores for the primary tumor (T), organ metastases (M), peritoneal metastases (P), and lymph node metastases (N) were multiplied to calculate the total tumor score for each animal. Score P4 value is the sum of the corresponding P0, P1, P2, P3 (P0/1/2/3) plus an additional value of 3 for metastasis presence in the diaphragm, 3 for kidney, 3 for intestine and 3 for adrenal glands.
Bioluminescence imaging was conducted using a cryogenically cooled IVIS 100 imaging system coupled to a data acquisition computer running Living Image Software (Xenogen Corp). Before imaging, mice were placed in an acrylic chamber anesthetized with 2.5% isofluorane-air mixture, and injected intraperitoneally with 15 mg/mL of luciferin potassium salt in PBS at a dose of 150 mg/Kg body weight. At the end of experiment, after the primary tumors were removed, cancer cell dissemination and metastasis were visualized using IVIS imaging, and metastatic colonies were counted and measured (photons/second).
Comparisons between groups were made using the Kruskall-Wallis ANOVA on ranks as a nonparametric test. Differences for which P value was less than 0.05 were considered statistically significant.

[2] = test system: HT1080 human fibrosarcoma cell line; assay: HT1080 cell survival by MTT method
Method: Briefly, HT1080 cells (1×10^4 cells/well) were plated onto 96-well cell culture plates in 50 μl of DMEM medium. Twenty-for hours later, 50 μl of medium with doxorubicin (240 nM or 1 μM) alone or in combination with either S100P or S100P combined with the antibodies (see FIG. 6) were added to each well and were cultured for 72 hours. Then 10 μl of a MTT solution (5 mg/ml PBS) was added to each well and after 4 hours cells were lysed, formazan product was solubilised with 100 μl of extraction buffer (15% SDS in 50% N,N-dimethylformamide pH 4.7) and colorimetric result was measured at 570 nm using a multi-well scanning spectrophotometer 5 hours after solubilization.

[3] = test system: BxPC3 pancreatic adenocarcinoma tumor cells; assay: Proliferation of BxPC3 tumor cells induced by S100P; assay type: cell-based, human; settings: S100P 100 nM, 48 hours
Method: The proliferation studies on the BxPC3 line were analyzed using the Cell Proliferation ELISA Biotrak™ System kit (GE Healthcare) following the manufacturer's instructions with some modifications. Three thousand cells were seeded in 50 μl of RPMI 1640 culture medium supplemented with 3% FCS in each well. The recombinant S100P protein (100 nM) alone or in combination with the antibodies was added to the cells in the same seeding medium to test the proliferative or inhibitory capacity thereof, respectively. To test the inhibitory effect of the 5D7, 4B12, 3E3, 7F1, 9F3, 6F1, 1A5, 3F8 and 2H8 monoclonal antibodies, a concentration of 500 nM of each antibody was incubated for 2 hours at 37° C. with the recombinant S100P protein before being added to the culture. After 48 hours at 37° C., the proliferation was determined. The two-tailed Mann-Whitney nonparametric test was used to compare the groups. A p value <0.05 was taken for the values to be statistically significant.

Q: Which results are given for `O=C(O)c1cc(=O)c2c(OCC(O)COc3cccc4oc(C(=O)O)cc(=O)c34)cccc2o1` [Cromolyn, cromolyn]?
A: Total Score ([1]; T x M x P x N scores multiplied): 2600 and 1000 (2×) and 1300 and 1750 (2×); Tumor score ([1]; TMPN score (Table 2), 30 days treatment, antibodies 25 mg/Kg ip three times per week, cromolyn 5 mg/Kg ip daily): 4 (4×) and 5 (2×); Nodes score ([1]; TMPN score): 5; Organ Metastases, Liver score ([1]; TMPN score): 5; Organ Metastases, Lung score ([1]; TMPN score): 5 and 0 (5×); Peritoneal Metastases, Adrenals score ([1]; TMPN score): 3 and 0 (5×); Peritoneal Metastases, Diaphragm score ([1]; TMPN score): 0 and 3 (5×); Peritoneal Metastases, Intestine score ([1]; TMPN score): 3; Peritoneal Metastases, Kidney score ([1]; TMPN score): 3 (4×) and 0 (2×); Peritoneal Metastases, Peritoneum score ([1]; TMPN score): 4 (4×) and 5 (2×)

Q: Which IC50 ([2]; Homo sapiens, HT-1080, 72 h) does the source give for `COc1cccc2c1C(=O)c1c(O)c3c(c(O)c1C2=O)C[C@@](O)(C(=O)CO)C[C@@H]3O[C@H]1C[C@H](N)[C@H](O)[C@H](C)O1` [Doxorubicin, doxorubicin] here?
A: The IC50 was 240 nM.

Q: What about the EC50 ([2]; Homo sapiens, HT-1080, read-out: Toxicity EC50) of the same molecule?
A: Its EC50 is 240 nM.

B1: S100P: human recombinant S100P protein (SEQ ID NO: 2) expressed in E. coli, used as stimulus (protein)
chain: GSHMTELETAMGMIIDVFSRYSGSEGSTQTLTKGELKVLMEKELPGFLQSGKDKDAVDKLLKDLDANGDAQVDFSEFIVFVAAITSACHKYFEKAGLK
modifications: Human
Q: B1 was tested. Which “increase of growing respect to the non treated HT1080 cells” value ([2]; S100P 500 nM, doxorubicin 240 nM, 72 h) did it give?
A: Its value is “approximately 40%”.

Q: What about the “proliferation increase compared to cells not treated with S100P” value [3] of the same molecule?
A: The value was roughly 80%.
